Activity calls are given as the source filed them. No cut-off for these calls is given here.
Columns and labels:
[1] = (§1) Inhibition of TRF2 expression in human U2OS cells at 2 uM measured after 48 hrs by Western blot analysis relative to control; type: functional
MG-63 [2] = assay: (§2) Inhibition of TRF2 expression in human MG-63 cells at 2 uM measured after 48 hrs by Western blot analysis relative to control; type: functional
[3] = as §2; type: functional
U2OS [4] = assay: Antiproliferative activity against human U2OS cells assessed as reduction in cell viability incubated for 48 hrs by MTT assay; type: functional, cell-based
MG-63 [5] = assay: Antiproliferative activity against human MG-63 cells assessed as reduction in cell viability incubated for 48 hrs by MTT assay; type: functional, cell-based; conditions: MG-63, 48 h
[6] = Cytotoxicity against […] MLO-Y4 cells assessed as cell viability incubated for 48 hrs by MTT assay; type: toxicity, cell-based; conditions: mouse
U2OS [7] = assay: as §1; type: functional

SMILES	inhibition at 2 µM [1]	inhibition (MG-63 [2])	inhibition at 2 µM [3]	IC50 (U2OS [4])	IC50 (MG-63 [5])	IC50 at 48 h [6]	inhibition (U2OS [7])
COc1cc(OCC(=O)O)ccc1C(=O)/C=C/c1cccc(Br)c1	52.5%	inactive					
COc1cc(OCC(=O)O)ccc1C(=O)/C=C/c1cc(Br)cc(Br)c1	52%		34.8%	32.9 µM	22.8 µM	> 100 µM	
COc1cc(OC2CCCOC2)ccc1C(=O)/C=C/c1cccc(Br)c1 (stereo not given)	31.8%		23.7%				
CCOC(=O)COc1ccc(C(=O)/C=C/c2cccc(Br)c2)c(OC)c1	37.3%	inactive					
CCOc1ccc(C(=O)/C=C/c2cccc(Br)c2)c(OCC)c1			36.1%				inactive
COc1ccc(CNC(=O)Nc2ncc([N+](=O)[O-])s2)cc1	9.2%		14.6%	32.8 µM	37.8 µM	> 100 µM	
COc1cc(OC2CCCOC2)ccc1C(=O)/C=C/c1cc(Br)cc(Br)c1 (stereo not given)			32.2%				inactive
COc1cc(O)c(C(=O)/C=C/c2cc(Br)cc(Br)c2)c(OC)c1	13.8%		22.1%				
CCOc1ccc(C(=O)/C=C/c2cc(Br)cc(Br)c2)c(OCC)c1			17.1%				inactive
COc1cc(O)c(C(=O)/C=C/c2cccc(Br)c2)c(OC)c1	18.3%		37.8%	8.75 µM	4.34 µM	19.6 µM	
COc1cccc(O)c1C(=O)/C=C/c1cccc(Br)c1	35%		40.6%				
O=C(/C=C/c1cccc(Br)c1)c1ccc2c(c1)OCCO2	39.5%		48.5%	13.2 µM	6.81 µM	76.5 µM	
COc1cc(O)c(C(=O)/C=C/c2cc(Cl)ccn2)c(OC)c1	32.9%		41.3%				
COc1cc(N2CCOCC2)ccc1C(=O)/C=C/c1cccc(Br)c1	25.1%		22.7%				
COc1cc(OC)c(C(=O)/C=C/c2cc(Br)cc(Br)c2)c(OC)c1	31.1%		31.4%				
COc1cc(N2CCOCC2)ccc1C(=O)/C=C/c1cc(Br)cc(Br)c1	33.2%		40.2%				
CCOC(=O)COc1ccc(C(=O)/C=C/c2cc(Br)cc(Br)c2)c(OC)c1	39.2%	inactive					
COc1cc(O)c(C(=O)CCc2cccc(Br)c2)c(OC)c1	34.5%		32.8%				
COc1cc(O)ccc1C(=O)/C=C/c1cccc(Br)c1	9.3%	inactive					
COc1ccc(C(=O)/C=C/c2cccc(Br)c2)c(OC)c1	45.4%		29.6%				
COc1cc(OC)c2c(=O)cc(-c3cccc(Br)c3)oc2c1	33.7%		23.8%				
O=C(/C=C/c1cc(Br)cc(Br)c1)c1ccc2c(c1)OCCO2	36.7%		37.6%				
COc1ccc(C(=O)/C=C/c2cc(Br)cc(Br)c2)c(OC)c1	22.5%		52.5%				
COc1cc(O)ccc1C(=O)/C=C/c1cc(Br)cc(Br)c1	42.1%		22.2%				
COc1ccc(C(=O)/C=C/c2cccc(Br)c2)c(O)c1	51.7%		44.8%	7.87 µM	7.11 µM	7.93 µM	
